From ChEMBL document CHEMBL5653599, “AZD1152, a novel and selective aurora B kinase inhibitor, induces growth arrest, apoptosis, and sensitization for tubulin depolymerizing agent or topoisomerase II inhibitor in human acute leukemia cells in vitro and in vivo” (Blood, 2007)
Calls of active or inactive are those of the source. The rule behind the calls is not given here.

Experiments:
[1] = tested on: MOLM-13; experiment: Antitumor activity against human MOLM-13 cells xenografted in immunodeficient nude BALB/c mouse model assessed as suppression of tumor growth at 25 mg/kg, ip administered 4 times a week for 2 weeks measured twice per week; assay type: functional, organism-based
[2] = biological target: Aurora kinase B (Homo sapiens) (UniProt Q96GD4); experiment: Inhibition of Aurora B in human MOLM-13 cells assessed as decrease in histone H3 phosphorylation at Ser10 at 10 nM incubated for 24 hrs by flow cytometry (reference value: 43 %); assay type: cell-based; set-up: scale not given: the % may be the effect or the level left
Sequence of Aurora kinase B (Homo sapiens) (Q96GD4 whole entry): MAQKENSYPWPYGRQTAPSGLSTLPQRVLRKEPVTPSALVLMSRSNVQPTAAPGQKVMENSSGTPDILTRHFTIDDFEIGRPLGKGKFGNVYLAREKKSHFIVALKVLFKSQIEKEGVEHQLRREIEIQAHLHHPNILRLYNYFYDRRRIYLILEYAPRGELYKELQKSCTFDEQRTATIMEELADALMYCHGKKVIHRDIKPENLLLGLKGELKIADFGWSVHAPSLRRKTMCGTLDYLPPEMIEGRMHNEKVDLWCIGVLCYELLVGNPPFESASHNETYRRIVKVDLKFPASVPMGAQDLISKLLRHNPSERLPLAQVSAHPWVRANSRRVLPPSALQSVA

[3] = tested on: MOLM-13; experiment: In vivo antiproliferative activity against human MOLM-13 cells xenografted in immunodeficient nude BALB/c mouse model assessed as inhibition of cell proliferation at 5 mg/kg, ip administered 4 times a week for 2 weeks relative to control; assay type: functional; conditions: MOLM-13, 336 h
[4] = tested on: MOLM-13; experiment: Antitumor activity against human MOLM-13 cells xenografted in immunodeficient nude BALB/c mouse model assessed as absence of leukemia cells at 25 mg/kg, ip administered 4 times a week for 2 weeks by H and E staining based analysis; assay type: functional, organism-based
[5] = tested on: MOLM-13; experiment: Antitumor activity against human MOLM-13 cells xenografted in immunodeficient nude BALB/c mouse model assessed as reduction in tumor growth at 5 mg/kg, ip administered 4 times a week for 2 weeks in presence of daunorubicin; assay type: functional, organism-based
[6] = tested on: MOLM-13; experiment: Antitumor activity against human MOLM-13 cells xenografted in immunodeficient nude BALB/c mouse model assessed as decrease in tumor volume at 25 mg/kg, ip administered 4 times a week for 2 weeks measured twice per week (reference value: 1261 +/- 200 mm3); assay type: functional
[7] = tested on: MOLM-13; experiment: Antitumor activity against human MOLM-13 cells xenografted in immunodeficient nude BALB/c mouse model assessed as decrease in tumor weight at 25 mg/kg, ip administered 4 times a week for 2 weeks measured twice per week (reference value: 583 +/- 150 mg); assay type: functional
[8] = tested on: MOLM-13; experiment: Antitumor activity against human MOLM-13 cells xenografted in immunodeficient nude BALB/c mouse model assessed as suppression of tumor weight at 25 mg/kg, ip administered 4 times a week for 2 weeks measured twice per week; assay type: functional, organism-based
[9] = tested on: MOLM-13; experiment: Antitumor activity against human MOLM-13 cells xenografted in immunodeficient nude BALB/c mouse model assessed as reduction in tumor weight at 5 mg/kg, ip administered 4 times a week for 2 weeks in presence of vincristine; assay type: functional, organism-based
[10] = tested on: MOLM-13; experiment: Antitumor activity against human MOLM-13 cells xenografted in immunodeficient nude BALB/c mouse model assessed as tumor growth inhibition at 5 mg/kg, ip administered 4 times a week for 2 weeks in presence of vincristine relative to control; assay type: functional; conditions: MOLM-13, 336 h
[11] = tested on: MOLM-13; experiment: Antitumor activity against human MOLM-13 cells xenografted in immunodeficient nude BALB/c mouse model assessed as necrotic tissue with infiltration of phagocytic cells at 25 mg/kg, ip administered 4 times a week for 2 weeks by H and E staining based analysis; assay type: functional, organism-based
[12] = biological target: Aurora kinase B (Homo sapiens) (UniProt Q96GD4); experiment: Inhibition of Aurora B in human MV4-11 cells assessed as decrease in histone H3 phosphorylation at Ser10 at 10 nM incubated for 24 hrs by flow cytometry (reference value: 52 %); assay type: cell-based; set-up: scale not given: the % may be the effect or the level left
[13] = Toxicity in immunodeficient nude BALB/c mouse model xenografted with human MOLM-13 cells assessed as signs of toxicity at 25 mg/kg, ip administered 4 times a week for 2 weeks measured twice per week; assay type: organism-based; conditions: in vivo, 336 h
[14] = Toxicity in immunodeficient nude BALB/c mouse model xenografted with human MOLM-13 cells assessed as signs of body wasting at 25 mg/kg, ip administered 4 times a week for 2 weeks measured twice per week; assay type: organism-based; conditions: in vivo, 336 h
[15] = Toxicity in immunodeficient nude BALB/c mouse model xenografted with human MOLM-13 cells assessed as signs of body wasting at 5 mg/kg, ip administered 4 times a week for 2 weeks in presence of vincristine; assay type: organism-based; conditions: in vivo, 336 h
[16] = Toxicity in immunodeficient nude BALB/c mouse model xenografted with human MOLM-13 cells at 1 mg/kg, ip administered 6 times in 2 weeks; assay type: organism-based; conditions: in vivo, 336 h
[17] = tested on: MOLM-13; conditions: Homo sapiens, dose 1-10 nM
[18] = tested on: PALL-2; experiment: Induction of apoptosis in human PALL-2 cells assessed as increase in cleaved PARP level at 1 to 3 nM in presence of vincristine by immunoblot analysis; assay type: functional, cell-based; conditions: dose 1-3 nM
[19] = tested on: MOLM-13; experiment: Induction of apoptosis in human MOLM-13 cells assessed as increase in cleaved PARP level at 1 to 3 nM in presence of vincristine by immunoblot analysis; assay type: functional, cell-based; conditions: dose 1-3 nM
[20] = tested on: MOLM-13; experiment: Induction of apoptosis in human MOLM-13 cells assessed as late apoptotic cells at 10 nM incubated for 24 hrs by annexin V/PI staining based flow cytometry (reference value: 2.2 %); assay type: functional
[21] = tested on: MOLM-13; experiment: Induction of apoptosis in human MOLM-13 cells assessed as early apoptotic cells at 3 nM incubated for 24 hrs by annexin V/PI staining based flow cytometry (reference value: 2.4 %); assay type: functional
[22] = tested on: MOLM-13; experiment: Induction of apoptosis in human MOLM-13 cells assessed as late apoptotic cells at 1 nM incubated for 24 hrs by annexin V/PI staining based flow cytometry (reference value: 2.2 %); assay type: functional
[23] = biological target: Aurora kinase B (Homo sapiens) (UniProt Q96GD4); conditions: MOLM-13, dose <= 10.0 nM, time 24-48 hrs
Description: Inhibition of Aurora B in human MOLM-13 cells assessed as increase in 4N/8N DNA content measured for 24 to 48 hrs by FACS analysis

[24] = tested on: MV4-11; experiment: Inhibition of cell proliferation of human MV4-11 cells incubated for 48 hrs by 3H-thymidine uptake assay; assay type: functional, cell-based
[25] = tested on: MOLM-13; experiment: Induction of apoptosis in human MOLM-13 cells assessed as early apoptotic cells at 1 nM incubated for 24 hrs by annexin V/PI staining based flow cytometry (reference value: 2.4 %); assay type: functional
[26] = tested on: MOLM-13; experiment: Induction of apoptosis in human MOLM-13 cells assessed as late apoptotic cells at 3 nM incubated for 24 hrs by annexin V/PI staining based flow cytometry (reference value: 2.2 %); assay type: functional
[27] = biological target: Aurora kinase B (Homo sapiens) (UniProt Q96GD4); conditions: PALL-2, dose <= 10.0 nM, time 24-48 hrs
Description: Inhibition of Aurora B in human PALL-2 cells assessed as increase in 4N/8N DNA content upto 10 nM by FACS analysis

[28] = biological target: Aurora kinase B (Homo sapiens) (UniProt Q96GD4); conditions: MOLM-13, dose <= 10.0 nM, time 24-48 hrs; remark: listed apart in the source
Description: Inhibition of Aurora B in human MOLM-13 cells assessed as increase in 4N/8N DNA content upto 10 nM by FACS analysis

[29] = biological target: Aurora kinase B (Homo sapiens) (UniProt Q96GD4); conditions: PALL-2, dose <= 10.0 nM, time 24-48 hrs; remark: listed apart in the source
Description: Inhibition of Aurora B in human PALL-2 cells assessed as increase in 4N/8N DNA content measured for 24 to 48 hrs by FACS analysis

[30] = tested on: MOLM-13; conditions: Homo sapiens, dose 1.0 nM
[31] = Antiproliferative activity against human PALL-2 cells assessed as inhibition of cell proliferation at 3 nM by 3H-thymidine incorporation assay relative to control; assay type: functional
[32] = Inhibition of cell proliferation of human PALL-2 cells incubated for 48 hrs by 3H-thymidine uptake assay; assay type: functional, cell-based
[33] = Synergistic antiproliferative activity against human PALL-2 cells assessed as inhibition of cell proliferation at 0.3 to 3 nM in presence of vincristine by 3H-thymidine incorporation assay relative to control; assay type: functional; conditions: dose 0.3-3 nM
[34] = tested on: MOLM-13; experiment: Induction of apoptosis in human MOLM-13 cells assessed as late apoptotic cells at 10 nM incubated for 48 hrs by annexin V/PI staining based flow cytometry (reference value: 1.9 %); assay type: functional
[35] = tested on: MOLM-13; experiment: Induction of apoptosis in human MOLM-13 cells assessed as early apoptotic cells at 3 nM incubated for 48 hrs by annexin V/PI staining based flow cytometry (reference value: 3.2 %); assay type: functional
[36] = tested on: MV4-11; experiment: Inhibition of clonogenic growth in human MV4-11 cells incubated for 10 days; assay type: functional, cell-based; conditions: MV4-11, 240 h
[37] = tested on: MOLM-13; experiment: Inhibition of clonogenic growth in human MOLM-13 cells incubated for 10 days; assay type: functional, cell-based; conditions: MOLM-13, 240 h
[38] = tested on: MOLM-13; experiment: Induction of apoptosis in human MOLM-13 cells assessed as early apoptotic cells at 10 nM incubated for 48 hrs by annexin V/PI staining based flow cytometry (reference value: 3.2 %); assay type: functional
[39] = tested on: MOLM-13; experiment: Induction of apoptosis in human MOLM-13 cells assessed as late apoptotic cells at 1 nM incubated for 48 hrs by annexin V/PI staining based flow cytometry (reference value: 1.9 %); assay type: functional
[40] = tested on: MOLM-13; experiment: Induction of apoptosis in human MOLM-13 cells assessed as early apoptotic cells at 1 nM incubated for 48 hrs by annexin V/PI staining based flow cytometry (reference value: 3.2 %); assay type: functional
[41] = tested on: MOLM-13; experiment: Induction of apoptosis in human MOLM-13 cells assessed as increase in cleaved PARP level at 3 to 10 nM in presence of daunorubicin by immunoblot analysis; assay type: functional, cell-based; conditions: dose 3-10 nM
[42] = tested on: MOLM-13; experiment: Induction of apoptosis in human MOLM-13 cells assessed as late apoptotic cells at 3 nM incubated for 48 hrs by annexin V/PI staining based flow cytometry (reference value: 1.9 %); assay type: functional
[43] = tested on: MOLM-13; experiment: Inhibition of cell proliferation of human MOLM-13 cells incubated for 48 hrs by 3H-thymidine uptake assay; assay type: functional, cell-based
[44] = tested on: MOLM-13; experiment: Induction of apoptosis in human MOLM-13 cells assessed as early apoptotic cells at 10 nM incubated for 24 hrs by annexin V/PI staining based flow cytometry (reference value: 2.4 %); assay type: functional
[45] = tested on: MOLM-13; experiment: In vivo antiproliferative activity against human MOLM-13 cells xenografted in immunodeficient nude BALB/c mouse model assessed as inhibition of cell proliferation at 0.2 mg/kg, ip administered for 2 weeks on every another day for first week relative to control; assay type: functional; conditions: MOLM-13, 336 h
[46] = tested on: MOLM-13; experiment: Induction of apoptosis in human MOLM-13 cells assessed as increase in cleaved PARP level by immunoblot analysis; assay type: functional, cell-based; conditions: dose 0.1-1 µM
[47] = Antiproliferative activity against human PALL-2 cells assessed as inhibition of cell proliferation at 0.3 uM by 3H-thymidine incorporation assay relative to control; assay type: functional
[48] = tested on: PALL-2; experiment: Induction of apoptosis in human PALL-2 cells assessed as increase in cleaved PARP level by immunoblot analysis; assay type: functional, cell-based; conditions: dose 0.1-1 µM

CCN(CCCOc1ccc2c(Nc3cc(CC(=O)Nc4cccc(F)c4)[nH]n3)ncnc2c1)CCOP(=O)(O)O [BARASERTIB]
Activity [1]: Active
Activity [2]: 25%
inhibition in vivo at 5 mg/kg [3]: ~50%
Activity [4]: Active
Activity [5]: Active
Activity [6]: 71 mm3
Activity [7]: 78 mg
Activity [8]: Active
Activity [9]: Active
inhibition in vivo at 5 mg/kg [10]: ~100%
Activity [11]: Active
Activity [12]: 19%

CCN(CCCOc1ccc2c(Nc3cc(CC(=O)Nc4cccc(F)c4)n[nH]3)ncnc2c1)CCOP(=O)(O)O [BARASERTIB]
Activity [13]: Non-Toxic
Activity [14]: Non-Toxic
Activity [15]: Non-Toxic

COc1cccc2c1C(=O)c1c(O)c3c(c(O)c1C2=O)C[C@@](O)(C(C)=O)C[C@@H]3O[C@H]1C[C@H](N)[C@H](O)[C@H](C)O1 [DAUNORUBICIN]
Activity [16]: Toxic

CCN(CCO)CCCOc1ccc2c(Nc3cc(CC(=O)Nc4cccc(F)c4)[nH]n3)ncnc2c1 [DEFOSBARASERTIB]
inhibition [17]: Active
Activity [18]: Active
Activity [19]: Active
Activity [20]: 7.1%
Activity [21]: 3.4%
Activity [22]: 4.3%
inhibition [23]: Dose-Dependent Effect
IC50 [24]: 8 nM
Activity [25]: 3.1%
Activity [26]: 3.8%
inhibition [27]: Tde
inhibition [28]: Tde
inhibition [29]: Dose-Dependent Effect
inhibition [30]: Active
inhibition at 0.003 µM [31]: ~35%
IC50 [32]: 5 nM
inhibition (INH) [33]: ~80%
Activity [34]: 15%
Activity [35]: 2.2%
IC50 [36]: 2.8 nM
IC50 [37]: 1 nM
Activity [38]: 36%
Activity [39]: 3.8%
Activity [40]: 1.9%
Activity [41]: Active
Activity [42]: 3.5%
IC50 [43]: 12 nM
Activity [44]: 6.5%

CC[C@]1(O)C[C@H]2CN(CCc3c([nH]c4ccccc34)[C@@](C(=O)OC)(c3cc4c(cc3OC)N(C=O)[C@H]3[C@@](O)(C(=O)OC)[C@H](OC(C)=O)[C@]5(CC)C=CCN6CC[C@]43[C@@H]65)C2)C1 [VINCRISTINE]
inhibition in vivo at 0.2 mg/kg [45]: ~50%
Activity [46]: Dose-Dependent Effect
inhibition at 0.3 µM [47]: ~35%
Activity [48]: Dose-Dependent Effect
